Assay results taken from patent publication US8993626B2, “Methods of treatment using sterculic acid” (The United States of America, as represented by the …, priority 2010, dated 2015).

What was measured:
[1] = system: Breast Cancer, NCI/ADR-RES; experiment: NCI in vitro anti-cancer cell line screen (SRB); details: Homo sapiens, 48 h
Method: (§1) The human tumor cell lines used in the cancer screen panel were grown in RPMI 1640 medium containing 5% FBS and 2 mM L-glutamine. The cells were inoculated into 96-well microtiter plates in 100 μl at plating density ranging from 5000 to 40,000 cell/well. […] Following drug addition, the plates were incubated for an additional 48 h. The assay was terminated by the addition of cold 10% TCA. The supernatant was discarded, and the plates were washed five times with water and air dried. Sulforhodamine B (SRB) solution (100 μl) at 0.4% (w/v) in 1% acetic acid was added to each well, and plates were incubated for 10 min at room temperature. After staining, unbound dye was removed by washing five times with 1% acetic acid and the plates were air dried. Bound stain was subsequently solubilized with 10 mM trizma base, and the absorbance was read on an automated plate reader at a wavelength of 515 nm.
(§2) A sulforhodamine B (SRB) end point was used to calculate the median growth inhibition (GI50). GI50 refers to the concentration at which the drug inhibits tumor cell growth by 50%.

[2] = system: ARPE-19 cells; experiment: qRT-PCR of inflammatory cytokines and ER stress markers, 7KCh-mediated inflammation; type: cell-based
[3] = system: Human retinal pigment epithelial (RPE) cells (ARPE-19); experiment: Microarray-based gene expression analysis of sterculic acid treated RPE cells; type: cell-based; details: 10 μM sterculic acid, 72 h
Method: Human retinal pigment epithelial (RPE) cells (ARPE-19) obtained from ATCC (Manassas, Va.) were grown in Dulbecco's Modified Eagle's Medium (DMEM) containing nutrient mixture F12 (Cellgro, Va.) supplemented with 5% fetal bovine serum, penicillin (100 U/ml) and streptomycin (100 μg/ml). Cells were seeded at a density of 2×10^5 cells/ml in complete medium and allowed to grow overnight. The culture medium was replaced next day with fresh medium before treating with 10 μM of sterculic acid dissolved in DMSO. The controls received the same amount of DMSO. After 72 h, total RNA, 100 ng, was amplified according to Affymetrix's small sample protocol, and 20 μg of cRNA was then hybridized on each NEI GeneChip microarray. After hybridization, GeneChip array was washed, stained with streptavidin-PE (Molecular Probes), amplified with biotinylated anti-streptavidin antibody and scanned with an argon ion Confocal Laser at 570 nm (Affymetrix). Affymetrix GeneChip Operating software was used for absolute expression and to normalize the gene expression levels between any two samples. Data were then incorporated into GeneSpring software 7.2 ([…]) for chip normalization, filtering and cluster analysis.

[4] = system: D407 cells; experiment: 7-ketocholesterol-mediated cytotoxicity, 24-well CCK-8 viability; details: 11 μM 7KCh, 24 hr, CCK-8
[5] = system: Leukemia, SR-91; experiment: NCI in vitro anti-cancer cell line screen (SRB); details: Homo sapiens, 48 h
Method: as §1, §2

[6] = system: ARPE19 cells; experiment: Cell Counting Kit-8 viability assay, 15 μM 7KCh-induced cytotoxicity; details: 1 μM fatty acid + 15 μM 7KCh
Method: 4×10^4 cells were seeded onto wells of a 96 well plate. […] Cell viability was determined as celluar dehydrogenase activity and expressed as the percentage of compound treated cells relative to that of untreated controls. error bar: standard deviation, n=4.
The kit allows sensitive colorimetric assays for the determination of the number of viable cells in cell proliferation and cytotoxicity assays. The amount of the formazan dye generated by the activity of dehydrogenases in cells is directly proportional to the number of living cells.
1) Cells were cultivated in a 96 well cell plate (Costar#3599, Corning Incorp, Corning, N.Y.).
2) The cell suspension (40,000 cells/100 μL) were added to 100 μL culture media per well and stood for 15 min at room temperature and cultured at 37° C. in a humidified 5% CO2 atmosphere.
3) Approximately 19 hr after seeding, when the cells were fully confluent, the cells were treated with either DMSO or 1 μM fatty acid in 200 μL of serum free media and subsequently added with 15 μM 7KCh in HPBCD. Then, the plate was swirled for mixing. The cells were also treated with DMSO and HPBCD, which served as vehicle control. The final DMSO and HPBCD concentrations in the media were in the range of 0.1% and 0.0675%, respectively.
Cell viability was expressed as the percentage of compound treated cells relative to that of untreated controls. Prior to measure cell viability, the cells were imaged live by Nikon TE 2000-U inverted fluorescent microscope.

SMILES: CCCCCCCCC1=C(CCCCCCCC(=O)O)C1 [sterculic acid, 8-(2-octacyclopropen-1-yl)octanoic acid]
- GI50 [1]: 10 µM
- effect on 7KCh-mediated mRNA induction (inflammatory response) ([2]; 1 μM fatty acid + 8 μM 7KCh, 24 hr, FIG. 13): complete inhibition
- effect of fatty acid alone on the mRNA expression of the cytokines ([2]; 1 μM fatty acid alone, no 7KCh, FIGS. 14, 15): no effect
- VEGF mRNA expression ([2]; 8 μM 7KCh alone or with 1 μM fatty acid, 24 hr, FIG. 13A): basal levels
- IL-6 mRNA expression ([2]; 8 μM 7KCh alone or with 1 μM fatty acid, 24 hr, FIG. 13B): basal levels
- GRP78 mRNA expression ([2]; 8 μM 7KCh alone or with 1 μM fatty acid, 24 hr, FIG. 13C): basal levels
- CHOP mRNA expression ([2]; 8 μM 7KCh alone or with 1 μM fatty acid, 24 hr, FIG. 13D): basal levels
- induction of VEGF mRNA ([2]; 8 μM 7KCh alone or with 1 μM fatty acid, FIG. 14A): 2.5 fold
- induction of IL-1β mRNA ([2]; 8 μM 7KCh alone or with 1 μM fatty acid, FIG. 14B): 3.9 fold
- induction of IL-6 mRNA ([2]; 8 μM 7KCh alone or with 1 μM fatty acid, FIG. 14C): 5.1 fold
- induction of IL-8 mRNA ([2]; 8 μM 7KCh alone or with 1 μM fatty acid, FIG. 14D): 1.8 fold
- induction of TNF-α mRNA ([2]; 8 μM 7KCh alone or with 1 μM fatty acid, FIG. 15A): 1.5 fold
- induction of TGF-β1 mRNA ([2]; 8 μM 7KCh alone or with 1 μM fatty acid, FIG. 15B): 1 fold
- induction of GRP78 mRNA ([2]; 8 μM 7KCh alone or with 1 μM fatty acid, FIG. 15C): 1.3 fold
- induction of CHOP mRNA ([2]; 8 μM 7KCh alone or with 1 μM fatty acid, FIG. 15D): 4.1 fold
- Fold Change, ALDH3A1, down-regulated [3]: 7 fold
- Fold Change, ALDH7A1, up-regulated [3]: 15 fold
- Fold Change, ATF4, down-regulated [3]: 7 fold
- Fold Change, BMP7, up-regulated [3]: 6 fold
- Fold Change, CRABP1, down-regulated [3]: 8 fold
- Fold Change, CTSC, up-regulated [3]: 9 fold
- Fold Change, FNTA, up-regulated [3]: 4 fold
- Fold Change, GADD45B, down-regulated [3]: 7 fold
- Fold Change, GOT2, up-regulated [3]: 5 fold
- Fold Change, HSPCA, up-regulated [3]: 11 fold
- Fold Change, HYOU1, down-regulated [3]: 10 fold
- Fold Change, IGFBP3, down-regulated [3]: 3 fold
- Fold Change, MMP2, down-regulated [3]: 7 fold
- Fold Change, MT1H, down-regulated [3]: 8 fold
- Fold Change, PALLD, up-regulated [3]: 5 fold
- Fold Change, SCEL, up-regulated [3]: 5 fold
- Fold Change, SOD1, up-regulated [3]: 5 fold
- Fold Change, SUOX, up-regulated [3]: 3 fold
- Fold Change, VBP1, up-regulated [3]: 5 fold
- co-treatment concentration that completely offsets the 7KCh cytotoxic effect (viability at level of control) [4]: 5 µM
- GI50 [5]: 10 µM
- protective effect against cytotoxicity by 7KCh (summary of the viability assays) [6]: greatest protective effect
